Patent US10646575B2, “Heterocyclic degronimers for target protein degradation” (C4 Therapeutics, Inc., priority 2016, dated 2020)

Molecular target: CRBN-DDB1 (Homo sapiens (Human), UniProt Q96SW2)
Experiment: CRBN-DDB1 fluorescence polarization (FP) binding assay
Conditions: displacement of (−)-Thalidomide-Alexa Fluor or Pomalidomide-fluorescein probe; 400 nM CRBN-DDB1, 5 nM probe, 60 min, room temperature
Description: Measuring compound ligand binding to CRBN-DDB1 was carried out using an established sensitive and quantitative in vitro fluorescence polarization (FP) based binding assay. […] Compounds were dispensed from serially diluted DMSO stock into black 384-well compatible fluorescence polarization plates using an Echo acoustic dispenser. Compound binding to CRBN-DDB1 was measured by displacement of either a (−)-Thalidomide-Alexa Fluor® or Pomalidomide-fluorescein conjugated probe dye. […] Matching control wells excluding CRBN-DDB1 were used to correct for background fluorescence. Plates were read on an Envision plate reader with appropriate FP filter sets. The corrected S (perpendicular) and P (parallel) values were used to calculate fluorescence polarization (FP) with the following equation: FP=1000*(S−G*P)/(S+G*P).

CRBN-DDB1, sequence (Q96SW2 whole entry): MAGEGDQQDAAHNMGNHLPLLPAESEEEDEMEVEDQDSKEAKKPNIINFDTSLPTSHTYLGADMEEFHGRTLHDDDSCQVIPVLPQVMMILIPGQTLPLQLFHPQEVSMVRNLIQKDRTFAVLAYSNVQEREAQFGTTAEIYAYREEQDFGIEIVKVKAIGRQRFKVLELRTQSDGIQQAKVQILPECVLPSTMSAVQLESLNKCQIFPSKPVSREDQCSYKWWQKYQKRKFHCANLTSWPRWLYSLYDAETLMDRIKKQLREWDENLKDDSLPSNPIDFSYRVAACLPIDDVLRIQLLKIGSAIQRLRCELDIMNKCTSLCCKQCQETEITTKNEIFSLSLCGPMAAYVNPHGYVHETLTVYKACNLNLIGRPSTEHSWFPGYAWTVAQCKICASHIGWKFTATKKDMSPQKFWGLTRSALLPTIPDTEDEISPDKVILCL
CRBN-DDB1, sequence (Q16531 whole entry partner): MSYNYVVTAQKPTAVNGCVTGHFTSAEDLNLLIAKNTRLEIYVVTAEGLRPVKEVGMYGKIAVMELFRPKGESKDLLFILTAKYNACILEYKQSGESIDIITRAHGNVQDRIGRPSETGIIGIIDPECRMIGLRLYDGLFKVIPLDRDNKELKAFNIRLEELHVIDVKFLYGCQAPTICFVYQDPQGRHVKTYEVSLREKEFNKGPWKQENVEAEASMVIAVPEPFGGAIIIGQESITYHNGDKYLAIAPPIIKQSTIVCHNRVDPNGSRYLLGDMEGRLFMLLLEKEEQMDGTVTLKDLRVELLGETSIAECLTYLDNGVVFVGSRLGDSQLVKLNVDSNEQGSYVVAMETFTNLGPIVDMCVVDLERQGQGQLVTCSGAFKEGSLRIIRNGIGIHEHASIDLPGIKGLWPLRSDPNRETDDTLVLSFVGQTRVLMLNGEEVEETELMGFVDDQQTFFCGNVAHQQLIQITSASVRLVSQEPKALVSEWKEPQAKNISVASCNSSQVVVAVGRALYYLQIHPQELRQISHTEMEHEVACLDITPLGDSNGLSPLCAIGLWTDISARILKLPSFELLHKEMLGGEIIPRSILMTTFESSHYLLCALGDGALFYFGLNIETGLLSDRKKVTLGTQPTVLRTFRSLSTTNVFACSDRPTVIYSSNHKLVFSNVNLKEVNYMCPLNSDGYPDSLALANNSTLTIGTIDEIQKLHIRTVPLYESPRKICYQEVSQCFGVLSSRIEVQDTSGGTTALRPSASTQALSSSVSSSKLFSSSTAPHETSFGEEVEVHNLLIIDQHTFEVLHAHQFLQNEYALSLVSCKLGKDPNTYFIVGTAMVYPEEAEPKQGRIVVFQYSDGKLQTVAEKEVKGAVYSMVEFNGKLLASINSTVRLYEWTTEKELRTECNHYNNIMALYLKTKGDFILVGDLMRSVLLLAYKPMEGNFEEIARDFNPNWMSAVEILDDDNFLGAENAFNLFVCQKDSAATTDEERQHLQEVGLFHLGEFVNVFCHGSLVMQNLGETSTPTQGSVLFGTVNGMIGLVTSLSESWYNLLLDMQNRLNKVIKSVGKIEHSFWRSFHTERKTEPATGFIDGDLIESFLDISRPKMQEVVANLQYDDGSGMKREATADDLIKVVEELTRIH

O=C1NC(=O)C2(CC2)CC1N1C(=O)c2ccccc2C1=O (stereo not shown) [Compound 3, 2-(4,6-dioxo-5-azaspiro[2.5]octan-7-yl)isoindoline-1,3-dione]
Kd: 1 to 1000 µM
